Experimental data from patent publication US20230255970A1, “COMPOSITIONS AND METHODS FOR TREATING PROLIFERATIVE DISEASES” (The Broad Institute, Inc., priority 2020, published 2023).

Key:
U2OS cells = assay: Cell count in U2OS Cell Painting images; assay type: cell-based, human; details: U2OS Cell Painting
Method in brief: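 Compound-treated U2OS cells were stained with six fluorescent labels and imaged, and morphological profiles were standardized plate-wise against controls. Replicate profiles were averaged into signatures. Compound and gene-overexpression signatures were matched by Pearson correlation.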

STK3/MST2 overexpression = assay: Cell Painting morphological profile matching to STK3/MST2 overexpression; assay type: cell-based, human
Excerpt: To profile each exogenously expressed gene (or allele therein), the previously developed image-based profiling assay, called Cell Painting was used (see Bray et al., Nat. Protoc. 2016 September; 11(9): 1757-1774). […] In five replicates in 384-well plate format, U2OS cells (human bone osteosarcoma cells), chosen for their flat morphology and previous validation in the assay, were infected with an arrayed ‘reference’ expression library of 323 open reading frame (ORF) constructs of partially characterized functions, a subset of which have been previously described. […]
Using the morphological signature found for YAP1 and TAZ, data mining was performed seeking compounds that effected the same (or opposite) morphology by computationally matching the morphological signature to a public database of small molecule signatures (see Caicedo et al., Nat. Meth. 2017 September; 14(9), 849-63, doi:10.1038/nMeth.4397, incorporated herein by reference). Specifically, the intersection of features in the two datasets was determined, resulting in 605 features (1399 features in the genetic screen, without any feature selection; and 729 features in the compound screen, obtained using the findCorrelation function with a threshold of 0.90 on the original 1,783 dimensional feature set). […]

[1] = test system: H9 human pluripotent stem cells; assay: qPCR of YAP1, CTGF and CYR61 in H9 hPSCs; assay type: cell-based; details: 24 hrs
Experimental: H9 hPSCs (WiCell) were maintained on vitronectin (Thermo Fisher)-coated plates in Essential 8 (E8) medium. The cells were routinely passaged using 0.5 mM EDTA and treated with 5 μM Y-27632 dihydrochloride (Tocris) on the first day. For testing the effects of the small molecules, H9 hPSCs were seeded at 50K cells/cm^2 on vitronectin-coated plates in E8 medium supplemented with 5 μM Y-27632 dihydrochloride (day 0). On day 1, the medium was switched to E8 medium. On day 2, the medium was switched to E8 medium supplemented with the small molecules. Following overnight incubation, the cells were collected for subsequent analysis on day 3.
The RNA was extracted using TRIzol (Life Technologies) and Direct-zol™ RNA MiniPrep kit (Zymo Research) as per manufacturer instructions. The RNA was reverse transcribed using iScript cDNA synthesis kit (Bio-Rad). The qPCR was performed on CFX Connect (Bio-Rad) using iTaq Universal SYBR Green Supermix (Bio-Rad). GAPDH was used as a reference gene for normalization. The relative gene expression levels were determined using the ddCt method.

STS-109 human UPS cells = assay: Proliferation assay, STS-109 cells; assay type: cell-based; details: 10 μM daily
Excerpt: (§1) YAP1 cell culture and treatments: Eisinger lab: Murine KP230 cells, a Yap1-dependent cancer cell line, were derived from a tumor from the KP mouse model (Kras^G12/D; Trp53^f/fl), as described in Eisinger-Mathason, T. S. K. et al., Proc. Natl. Acad. Sci. U.S.A 112 (2015): E3402-11, which is hereby incorporated by reference in its entirety. STS-109 UPS cells were derived from a human UPS tumor and validated by Rebecca Gladdy, MD (Sinai Health System, Toronto, Ontario, Canada). TC32 cells were a gift from Patrick Grohar, MD, PhD (Children's Hospital of Philadelphia). HT-1080, HCT-116, and HEK293T cells were purchased from ATCC. KP230, HT-1080, and HEK-293T cells were grown in DMEM with 10% FBS, 1% L-glutamine, and 1% penicillin/streptomycin (P/S). STS-109 cells were cultured in DMEM with 20% FBS, 1% L-glutamine, and 1% P/S. TC32 cells were grown in RPMI with 10% FBS, 1% L-glutamine, and 1% P/S. HCT-116 cells were cultured in McCoy's 5A medium with 10% FBS and 1% P/S. All cells were confirmed to be negative for mycoplasma contamination and were maintained in an incubator at 37C with 5% CO2. […]
(§2) NB4A treatment: Cells were treated with 10 μM of each inhibitor or an equivalent volume of DMSO every 24 hours for 3-8 days, and counted with a hemocytometer with trypan blue exclusion daily (KP230, HT-1080, TC32, HCT-116), or every 2 days (STS-109).

[2] = test system: HT-1080 fibrosarcoma cells; assay: Proliferation assay, HT-1080 cells; assay type: cell-based, human; details: 10 μM daily for 72 hours
Excerpt: as §1, §2

[3] = test system: HCT-116 colon cancer cells; assay: Proliferation assay, HCT-116 cells; assay type: cell-based; details: 10 μM daily for 72 hours
Excerpt: as §1, §2

TEAD-YAP interaction = details: HEK-TIYL cells, PubChem; cited from earlier work

c1ccc(CNc2ncnc3ccccc23)cc1 [BRD-K43796186, N-benzylquinazolin-4-amine]
Avg. Cell Count z-score (U2OS cells): −0.5708 | Morphological profile correlation with overexpression of STK3/MST2 (STK3/MST2 overexpression): −0.49 | YAP1 expression [1]: did not affect | expression of YAP1 target genes (CTGF and CYR61) [1]: increased the expression of YAP1 target genes (CTGF and CYR61) in a dose-dependent manner | proliferation (STS-109 human UPS cells): did not affect the proliferation | proliferation [2]: did not affect the proliferation | proliferation [3]: did not affect the proliferation | inhibitors of TEAD-YAP interaction (TEAD-YAP interaction): showed activity
